The values that follow come from ChEMBL document CHEMBL1201862, “PubChem BioAssay data set” (2004).

Assay in all cases: DTP human tumour cell line panel, 48 h
The subject of experiment [1] is HOP-92.
Experiment [2] relates to HL-60.
For experiment [3], the system named is SF-268.
Experiment [4] deals with UACC-62.
Experiment [5] relates to OVCAR-4.
In experiment [6] the test system is RPMI-8226.
Experiment [7] concerns A549.
Experiment [8] relates to U-251.
For experiment [9], the system named is TK-10.
Experiment [10] relates to SF-295.
In experiment [11] the test system is CCRF-CEM.
The test system of experiment [12] is SK-MEL-28.
Experiment [13] concerns KM12.
The test system of experiment [14] is SK-MEL-2.

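Five concentrations, 48 hours, 96-well plates. At the GI50, growth is halved.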 Active and inactive are the calls of the source. Rule as the data show it: active = GI50 up to about 1.1 µM and inactive = higher.

Regarding `CCOC(=O)C(/C(=N\NC(=O)OC)C(=O)Nc1cc(OC)ccc1OC)c1cnc2ccccc2n1` (stereo not drawn), the GI50 in experiment [1] was > 100 µM (inactive); in [2], 69.2 µM (inactive); in experiment [3], > 100 µM (inactive); in experiment [4] it was > 100 µM (inactive); in experiment [5], > 100 µM (inactive); in experiment [6] it was > 100 µM (inactive). Further, the GI50 in experiment [7], in experiment [8], in experiment [9], in [10], in [11] and in experiment [12] was > 100 µM (inactive) in each case.

For the compound `CCCCCCCCCOC(=S)NC`, the GI50 was 18.2 µM (inactive) in [1]; 15.4 µM (inactive) in [2]; 19.5 µM (inactive) in [3]; 23.2 µM (inactive) in [4]; 25.6 µM (inactive) in experiment [13]; 19.6 µM (inactive) in [5]. Moreover, the GI50 in experiment [14] was 19.5 µM (inactive); in [6], 20 µM (inactive); in experiment [7], 24.8 µM (inactive); in experiment [8], 16.9 µM (inactive); in experiment [9], 21.3 µM (inactive); in [10], 27.8 µM (inactive). Further, the GI50 was 19.7 µM (inactive) in experiment [11] and 22.3 µM (inactive) in [12].

For the compound `NNC(=O)CCC(=O)Nc1ccc(Cl)cc1Cl`, the GI50 in experiment [1] is > 100 µM (inactive); in experiment [2], 94.4 µM (inactive); in experiment [3] it was > 100 µM (inactive); in experiment [4] it was 28.8 µM (inactive); in experiment [13] it was > 100 µM (inactive); in [5] it was > 100 µM (inactive). The GI50 in experiment [14] was 54.6 µM (inactive); in experiment [6], 80.5 µM (inactive); in experiment [7], > 100 µM (inactive); in [8] it was > 100 µM (inactive); in [9], > 100 µM (inactive); in experiment [10], > 100 µM (inactive). The GI50 in experiment [11] and in [12] was > 100 µM (inactive) throughout.

As for `O=[N+]([O-])c1cccc(/C=N\NS(=O)(=O)c2ccc(Cl)cc2)c1O`, the GI50 was 42.6 µM (inactive) in [1]; 46.9 µM (inactive) in experiment [2]; > 100 µM (inactive) in [3]; 49.7 µM (inactive) in [4]; > 100 µM (inactive) in experiment [13]; > 100 µM (inactive) in experiment [5]. The GI50 in [14] was 76.6 µM (inactive); in [6], 55.5 µM (inactive); in experiment [7] it was > 100 µM (inactive); in [8] it was 55.5 µM (inactive); in [9], > 100 µM (inactive); in experiment [10] it was > 100 µM (inactive). Moreover, the GI50 in experiment [11] is 31.7 µM (inactive); in experiment [12], 46.9 µM (inactive).

With `O=C(c1ccccc1)[C@H]1Nc2cnccc2C2c3ccccc3CC21` (stereo partly drawn), the GI50 in [1] is 13.1 µM (inactive); in [2], 4.63 µM (inactive); in [3], 7.35 µM (inactive); in experiment [4], 16.9 µM (inactive); in experiment [13], 42.1 µM (inactive); in [5], 0.564 µM (active). For the same compound, the GI50 in experiment [14] was 11.1 µM (inactive); in [6], 7 µM (inactive); in [7], 21.9 µM (inactive); in experiment [8], 11.3 µM (inactive); in experiment [9] it was 35.1 µM (inactive); in experiment [10] it was 18.2 µM (inactive). Moreover, the GI50 in [11] is 3.27 µM (inactive); in experiment [12], 14.1 µM (inactive).

Regarding `COC(=O)N/N=C/c1oc(-c2cccc([N+](=O)[O-])c2)c(-c2cccc([N+](=O)[O-])c2)c1[N+](=O)[O-]`, the GI50 was 49.3 µM (inactive) in experiment [1]; 19.3 µM (inactive) in experiment [2]; > 100 µM (inactive) in experiment [3]; 59.8 µM (inactive) in experiment [4]; > 100 µM (inactive) in experiment [13]; > 100 µM (inactive) in experiment [5]. In addition, the GI50 in experiment [6] was 30.1 µM (inactive); in [7], > 100 µM (inactive); in experiment [8] it was > 100 µM (inactive); in experiment [9], > 100 µM (inactive); in [10], > 100 µM (inactive); in [11] it was 22.1 µM (inactive). For the same compound, the GI50 in experiment [12] is > 100 µM (inactive).

Regarding `CN1C(c2ccccc2)CC(C)(O)CC1c1ccccc1` (stereo not drawn), the GI50 was > 100 µM (inactive) in experiment [1]; 99.5 µM (inactive) in experiment [2]; > 100 µM (inactive) in [3]; > 100 µM (inactive) in [4]; > 100 µM (inactive) in experiment [13]; > 100 µM (inactive) in experiment [5]. Further, the GI50 in experiment [14], in [6], in experiment [7], in experiment [8], in experiment [9] and in experiment [10] was > 100 µM (inactive) in each case. For the same compound, the GI50 in experiment [11] and in experiment [12] was > 100 µM (inactive) in each case.

For `CC(=O)OC(OC(C)=O)c1ncccc1C(=O)OC(C)C`, the GI50 in experiment [1] is 18.2 µM (inactive); in experiment [2], 8.65 µM (inactive); in [3], 13.7 µM (inactive); in experiment [4], > 100 µM (inactive); in experiment [13] it was 63.7 µM (inactive); in experiment [5] it was > 100 µM (inactive). Besides, the GI50 in experiment [14] is > 100 µM (inactive); in experiment [7], > 100 µM (inactive); in experiment [8], 18.3 µM (inactive); in [9], > 100 µM (inactive); in experiment [10] it was 42.4 µM (inactive); in [11] it was 7.26 µM (inactive). Further, the GI50 in [12] was 1.18 µM (inactive).

Turning to `O=CC1CCCc2ccccc21` (stereo not drawn), the GI50 in experiment [1] is > 100 µM (inactive); in experiment [2], > 63 µM (inactive); in [3] it was > 31.6 µM (inactive); in experiment [4], > 100 µM (inactive); in experiment [13], > 100 µM (inactive); in [5] it was > 100 µM (inactive). Also, the GI50 in experiment [14] was > 100 µM (inactive); in [6], > 43.1 µM (inactive); in experiment [7], > 100 µM (inactive); in experiment [8], > 41.5 µM (inactive); in experiment [9], > 100 µM (inactive); in experiment [10] it was > 100 µM (inactive). In addition, the GI50 in [11] is > 49.7 µM (inactive); in experiment [12], > 100 µM (inactive).

Regarding `CN(C)C1=NC2=S(SC(Nc3ccccc3)=N2)S1` (stereo not drawn), the GI50 in [1] was 22.7 µM (inactive); in experiment [2] it was 10 µM (inactive); in experiment [3], 34.5 µM (inactive); in experiment [4], 21.2 µM (inactive); in experiment [13], 26.4 µM (inactive); in experiment [5], 19 µM (inactive). The GI50 is 7.62 µM (inactive) in [14]; 9.33 µM (inactive) in experiment [6]; 7.85 µM (inactive) in [7]; 19.4 µM (inactive) in [8]; 27.9 µM (inactive) in experiment [9]; 24.5 µM (inactive) in [10]. Besides, the GI50 in [11] is 15.5 µM (inactive); in experiment [12], 17.2 µM (inactive).

With `O=C1CCC(=O)c2cc(Br)ccc2N1`, the GI50 in [1], in [2], in experiment [3], in experiment [4], in [13] and in [5] was > 100 µM (inactive) each time. For the same compound, the GI50 in experiment [14] was > 100 µM (inactive); in experiment [6], > 67.5 µM (inactive); in [7], 98.6 µM (inactive); in experiment [8], 99.3 µM (inactive); in [9] it was > 100 µM (inactive); in experiment [10], > 100 µM (inactive). Moreover, the GI50 was > 68.9 µM (inactive) in [11] and > 100 µM (inactive) in experiment [12].

With `CC1CCC2c3c([nH]c4ccccc34)C3C(=O)N(c4ccccc4)C(=O)C3C2C1` (stereo not drawn), the GI50 in [1] is 11.1 µM (inactive); in experiment [2], > 250 µM (inactive); in [3], 22.9 µM (inactive); in experiment [4], 30.1 µM (inactive); in experiment [13], > 250 µM (inactive); in experiment [5] it was > 250 µM (inactive). In addition, the GI50 was 32.5 µM (inactive) in experiment [14]; > 100 µM (inactive) in experiment [6]; 90.8 µM (inactive) in experiment [7]; 64.9 µM (inactive) in experiment [8]; 21.7 µM (inactive) in experiment [9]; 15 µM (inactive) in experiment [10]. The GI50 was 20 µM (inactive) in experiment [11] and > 250 µM (inactive) in experiment [12].

In the case of `O=C(CN1CCN(c2cccc(Cl)c2)CC1)N1CCc2c([nH]c3ccccc23)C1c1cccnc1` (stereo not drawn), the GI50 is 12.8 µM (inactive) in experiment [1]; 2.38 µM (inactive) in experiment [2]; 13.1 µM (inactive) in [3]; 11.3 µM (inactive) in experiment [4]; 4.85 µM (inactive) in experiment [13]; 13.5 µM (inactive) in experiment [5]. The GI50 in experiment [6] was 1.92 µM (inactive); in [7], 7.13 µM (inactive); in experiment [8], 10.2 µM (inactive); in experiment [9], 26.2 µM (inactive); in experiment [10], 8.53 µM (inactive); in experiment [11] it was 3.15 µM (inactive). Also, the GI50 in [12] was 12.2 µM (inactive).

In the case of `C/C(CC(=O)Nc1cccc([N+](=O)[O-])c1)=N\NC(=O)C[n+]1ccccc1`, the GI50 in experiment [1], in experiment [2], in experiment [3], in experiment [4], in [13] and in experiment [14] was > 100 µM (inactive) each time. Also, the GI50 in [6], in experiment [7], in experiment [8], in experiment [9], in experiment [10] and in experiment [11] was > 100 µM (inactive) in each case. In addition, the GI50 in experiment [12] was > 100 µM (inactive).

Consider `CC(=O)Nc1ccc(/C=C/C(=O)c2sc(-c3cccnc3)nc2C)cc1`, for which the GI50 in experiment [1], in experiment [2], in [3], in experiment [4], in experiment [13] and in experiment [14] was > 100 µM (inactive) throughout. Also, the GI50 in [6], in experiment [7], in [8], in experiment [9], in [10] and in experiment [11] was > 100 µM (inactive) throughout. Besides, the GI50 in [12] is > 100 µM (inactive).
